# According to article PMC11645656, “MRGPRX4 mediates phospho-drug associated pruritus in a humanized mouse model” (Science translational medicine, 2024):
# Where “and” joins values, the source holds several entries; their conditions need not be identical. Equal values may be shown once. Read-outs that look alike come from different tables or passages of the source.
# Biological target: T1, MRGPRX4 (S83) (Homo sapiens, UniProt Q96LA9, L83S)
# T1 construct: expressed in transfected cells
# Test: EC50 determination, intracellular calcium mobilization in MRGPRX4 stably expressed HEK293 cells (FLIPR Calcium 5, Flexstation-3)
# Format: cell-based
# Set-up: Fig. 1D dose-response, calcium mobilization response (individual replicate) / calcium mobilization response (Fig. 1D dose-response raw data): unit not given here
# Conditions: for calcium mobilization response (Fig. 1D dose-response raw data): individual replicate values; for EC50: read-out: EC50; for Hill coefficient: dose-response curve fitting
# Method: HEK293 cells and MRGPRX4 stably expressed HEK293 cells were seeded in 100 μl culture media on 96-well plates at a density of 40,000 cells per well and incubated overnight. The next day, the media were replaced with a dye-loading solution from the FLIPR Calcium 5 assay kit (Molecular Devices), diluted in Hank's Balanced Salt Solution (HBSS) with 20 mM HEPES, pH 7.4. After 1 h of incubation at 37°C, cells were allowed to recover for 10 min in the dark at room temperature prior to performing intracellular calcium mobilization assay in a Flexstation-3 instrument with SoftMax®Pro 7.1 software (Molecular Devices). Serial concentrations of tested drugs were prepared in HBSS/HEPES solution at 3X concentration. […] Compounds were tested in triplicates and the signals were averaged. Responses were determined by subtracting the minimum signal (at the baseline before adding the drug) from the maximum signal (obtained after drug stimulation). Four-parameter logistic (4PL) curve fit was used to plot the dose-response curves. […] Both dose-response curve fitting and EC50s calculation are computed with GraphPad Prism software (version: 6.o or above).
# [1] = MRGPRX4 stably expressed HEK293 cells, calcium mobilization
# T1 sequence (Q96LA9 whole entry L83S): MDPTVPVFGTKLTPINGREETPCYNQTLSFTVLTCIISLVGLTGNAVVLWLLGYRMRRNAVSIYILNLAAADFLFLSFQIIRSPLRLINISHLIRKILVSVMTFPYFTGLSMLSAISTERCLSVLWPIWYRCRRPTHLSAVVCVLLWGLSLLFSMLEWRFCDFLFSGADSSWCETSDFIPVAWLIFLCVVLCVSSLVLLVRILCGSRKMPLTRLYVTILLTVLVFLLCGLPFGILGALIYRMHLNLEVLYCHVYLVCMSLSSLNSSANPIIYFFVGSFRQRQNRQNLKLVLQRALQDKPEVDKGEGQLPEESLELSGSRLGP
Compound,calcium mobilization response (Fig. 1D dose-response raw data) (concentration 4.88281e-7 M),calcium mobilization response (Fig. 1D dose-response raw data) (concentration 9.76563e-7 M),calcium mobilization response (Fig. 1D dose-response raw data) (concentration 1.95313e-6 M),calcium mobilization response (Fig. 1D dose-response raw data) (concentration 3.90625e-6 M),calcium mobilization response (Fig. 1D dose-response raw data) (concentration 7.8125e-6 M),calcium mobilization response (Fig. 1D dose-response raw data) (concentration 1.5625e-5 M),calcium mobilization response (Fig. 1D dose-response raw data) (concentration 3.125e-5 M),calcium mobilization response (Fig. 1D dose-response raw data) (concentration 6.25e-5 M),calcium mobilization response (Fig. 1D dose-response raw data) (concentration 0.00025 M),calcium mobilization response (Fig. 1D dose-response raw data) (concentration 0.0005 M),EC50 [1] [nM],Hill coefficient (table S1),also measured
C[C@@H]1C[C@H]2[C@@H]3C[C@@H](O)C4=CC(=O)C=C[C@]4(C)[C@@]3(F)[C@@H](O)C[C@]2(C)[C@@]1(O)C(=O)CO [6b-hydroxy Dexamethasone],,,,,,,,,,,,,"Fig. 1D dose-response, calcium mobilization response (individual replicate) (Concentration 9.76563e-7 M): -11.185 and -2.950 and -9.064 and -1.271 and -4.466; Fig. 1D dose-response, calcium mobilization response (individual replicate) (Concentration 1.95313e-6 M): -4.343 and -9.147 and -5.890 and -0.806 and -7.669; Fig. 1D dose-response, calcium mobilization response (individual replicate) (Concentration 3.90625e-6 M): -10.884 and -6.013 and -8.580 and -8.133 and -5.676; Fig. 1D dose-response, calcium mobilization response (individual replicate) (Concentration 7.8125e-6 M): -1.007 and -6.768 and -0.871 and -6.992 and -1.487; Fig. 1D dose-response, calcium mobilization response (individual replicate) (Concentration 1.5625e-5 M): -3.580 and -12.887 and -7.336 and -12.885 and -3.031; Fig. 1D dose-response, calcium mobilization response (individual replicate) (Concentration 3.125e-5 M): -6.945 and -4.243 and -10.704 and -6.397 and -13.033; Fig. 1D dose-response, calcium mobilization response (individual replicate) (Concentration 6.25e-5 M): -3.167 and -3.420 and -21.978 and -8.518 and -4.898; Fig. 1D dose-response, calcium mobilization response (individual replicate) (Concentration 0.00025 M): -19.291 and -10.466 and -0.309 and -10.053 and -7.780; Fig. 1D dose-response, calcium mobilization response (individual replicate) (Concentration 0.0005 M): -6.623 and -13.594 and -13.062 and -8.352 and -18.691; Fig. 1D dose-response, calcium mobilization response (individual replicate) (Concentration 0.001 M): -11.685 and -12.391 and -8.163 and -15.688 and -9.331"
CC[C@]1(c2ccccc2)NC(=O)N(C)C1=O [(R)-mephenytoin],-28.494 and -0.685 and -28.419 and -1.368 and -39.430 and -16.800 and -4.015 and -27.858 and -25.726,-7.288 and -19.217 and -18.327 and -17.700 and -9.222 and -17.910 and -11.024 and -17.403 and -16.404,-4.806 and -21.809 and -22.673 and -18.368 and -20.701 and -10.218 and -45.398 and -2.556 and -1.333,-11.313 and -5.626 and -2.810 and -4.150 and -5.388 and -10.211 and -8.758 and -3.374 and -7.616,-13.282 and -38.673 and -86.390 and -55.539 and -30.274 and -52.531 and -40.546 and -63.168 and -34.632,-73.173 and -60.784 and -5.824 and -52.600 and -25.248 and -61.934 and -57.691 and -23.069 and -59.022,-77.603 and -4.145 and -51.921 and -55.448 and -9.903 and -68.319 and -36.832 and -68.498 and -28.339,-22.173 and -48.350 and -3.409 and -11.978 and -30.555 and -31.399 and -12.734 and -38.906 and -22.292,-56.927 and -11.154 and -10.026 and -28.148 and -45.428 and -4.530 and -28.870 and -12.606 and -36.630,-44.336 and -37.065 and -31.962 and -46.134 and -28.961 and -38.269 and -19.967 and -86.384 and -7.013,,,
CC[C@@]1(c2ccccc2)NC(=O)N(C)C1=O [(S)-mephenytoin],-20.370 and -28.895 and -20.737 and -16.113 and -11.794 and -17.288 and -8.111 and -30.820 and -18.667,-14.910 and -10.110 and -14.446 and -15.834 and -19.023 and -15.341 and -3.659 and -28.710 and -12.463,-18.478 and -17.267 and -18.784 and -17.855 and -11.934 and -14.257 and -17.051 and -23.967 and -8.270,-5.757 and -11.730 and -8.574 and 8.283 and -10.074 and -11.646 and -8.442 and -1.458 and -9.849,26.923 and 9.795 and -10.857 and -10.275 and -14.955 and -11.140 and -1.065 and -2.234 and -1.955,9.387 and -3.753 and 17.104 and -13.591 and -6.859 and -9.499 and -1.610 and -1.506 and -0.489,7.318 and 16.609 and 24.858 and -11.449 and -15.821 and -20.419 and 0.176 and 0.206 and 0.166,20.640 and 67.105 and 19.512 and -1.060 and 14.827 and -6.587 and 28.221 and 5.104 and 23.894,56.723 and 43.018 and 21.772 and 14.354 and 43.622 and 16.555 and 1.733 and 79.374 and 16.915,-10.031 and 14.167 and 0.209 and 8.392 and 6.582 and -2.785 and 5.320 and 0.368 and 2.580,,,
CNC[C@H](O)[C@@H](O)[C@H](O)[C@H](O)CO.CNC[C@H](O)[C@@H](O)[C@H](O)[C@H](O)CO.C[C@@H](O[C@H]1OCCN(Cc2nn(P(=O)(O)O)c(=O)[nH]2)[C@H]1c1ccc(F)cc1)c1cc(C(F)(F)F)cc(C(F)(F)F)c1 [Fosaprepitant dimeglumine],,,,,,,,,,,7000,3.670,
C[C@]12CCC(=O)C=C1CC[C@@H]1[C@@H]2[C@@H](O)C[C@@]2(C)[C@H]1CC[C@]2(O)C(=O)COC(=O)CCC(=O)O [Hydrocortisone 21-hemisuccinate],,,,,,,,,,,,,EC50 (table S1): > 500000 nM
C[C@]12CCC(=O)C=C1CC[C@@H]1[C@@H]2[C@@H](O)C[C@@]2(C)[C@H]1CC[C@]2(O)C(=O)COP(=O)([O-])[O-].[Na+].[Na+] [Hydrocortisone sodium phosphate],,,,,,,,,,,328,1.411,
O=C1NC(=O)C(c2ccccc2)(c2ccc(O)cc2)N1 (stereo not shown) [Hydroxyphenytoin],-38.335 and -44.136 and -38.604 and -53.703 and -53.375,-21.881 and -18.856 and -41.417 and -3.943 and -41.401,-33.904 and -36.161 and -55.798 and -55.451 and -16.637,-41.290 and -41.879 and -47.340 and -95.401 and -28.834,-43.390 and -45.131 and -40.251 and -36.055 and -69.327,-49.874 and -56.147 and -54.231 and -13.701 and -87.936,-55.112 and -52.780 and -54.634 and -28.441 and -50.624,-46.992 and -52.460 and -54.562 and -23.886 and -26.540,-50.524 and -46.583 and -49.203 and -70.603 and -7.273,-43.005 and -35.783 and -32.491 and -3.926 and -40.291,,,"Fig. 1D dose-response, calcium mobilization response (individual replicate) (Concentration 9.76563e-7 M): -13.997 and -18.908 and -71.107 and -31.060; Fig. 1D dose-response, calcium mobilization response (individual replicate) (Concentration 1.95313e-6 M): -36.810 and -38.751 and -15.180 and -28.223; Fig. 1D dose-response, calcium mobilization response (individual replicate) (Concentration 3.90625e-6 M): -53.775 and -34.726 and -87.092 and -4.044; Fig. 1D dose-response, calcium mobilization response (individual replicate) (Concentration 7.8125e-6 M): -6.273 and -4.175 and -11.050 and -115.284; Fig. 1D dose-response, calcium mobilization response (individual replicate) (Concentration 1.5625e-5 M): -23.391 and -58.915 and -49.315 and -20.542; Fig. 1D dose-response, calcium mobilization response (individual replicate) (Concentration 3.125e-5 M): -58.615 and -86.247 and -12.733 and -61.272; Fig. 1D dose-response, calcium mobilization response (individual replicate) (Concentration 6.25e-5 M): -83.462 and -33.574 and -53.783 and -75.169; Fig. 1D dose-response, calcium mobilization response (individual replicate) (Concentration 0.00025 M): -7.298 and -62.458 and -53.853 and -44.871; Fig. 1D dose-response, calcium mobilization response (individual replicate) (Concentration 0.0005 M): -68.434 and -44.648 and -66.219 and -35.443; Fig. 1D dose-response, calcium mobilization response (individual replicate) (Concentration 0.001 M): -67.062 and -39.432 and -24.454 and -47.392"
CCC1(c2ccccc2)NC(=O)NC1=O (stereo not shown) [Phenylethylhydantoin],-36.084 and -46.830 and -25.168 and -25.995 and -41.232 and -40.854 and -21.141 and -50.216 and -36.724,-38.906 and -40.253 and -36.747 and -35.963 and -45.530 and -34.413 and -90.977 and -3.770 and -21.159,-39.850 and -47.267 and -41.649 and -23.282 and -47.762 and -57.722 and -64.532 and -47.904 and -16.330,-41.691 and -47.727 and -40.039 and -70.885 and -55.070 and -3.502 and -50.619 and -10.963 and -67.875,-54.750 and -48.340 and -51.910 and -49.343 and -57.168 and -48.489 and -88.910 and -37.952 and -28.139,-44.078 and -57.965 and -55.228 and -49.591 and -44.073 and -63.607 and -50.842 and -52.493 and -53.936,-43.665 and -49.381 and -54.677 and -65.107 and -76.615 and -6.000 and -68.649 and -47.158 and -31.916,-55.764 and -53.161 and -56.227 and -7.830 and -129.161 and -28.161 and -12.225 and -71.995 and -80.931,-45.731 and -49.520 and -42.661 and -67.761 and -17.367 and -52.783 and -55.357 and -16.011 and -66.544,-37.983 and -36.120 and -36.080 and -77.623 and -5.808 and -26.753 and -42.653 and -37.379 and -30.151,,,
C[C@]12C=CC(=O)C=C1CC[C@@H]1[C@@H]2[C@@H](O)C[C@@]2(C)[C@H]1CC[C@]2(O)C(=O)COP(=O)(O)O [Prednisolone phosphate],,,,,,,,,,,267,0.753,
